Columns and labels:
[1] = test system: human liver cancer cell line HepG2 xenografts; assay: HepG2 xenograft growth inhibition in nude mice; assay type: in vivo; details: 80 mg/kg i.p. once daily
Protocol: (§1) All the procedures related to animal handling, care, and the treatment in the study were performed following guidelines approved by an Institutional Animal Care and Use Committee (IACUC) of Crown Bioscience, Inc. (Santa Clara, Calif., USA, a contract research organization we hired) based on the guidance of the Association for Assessment and Accreditation of Laboratory Animal Care (AAALAC). Animals were checked for any effects of tumor growth and drug treatment on normal behavior such as mobility, food and water consumption, body weight gain/loss (gross body weights were measured twice weekly), eye/hair matting, and any other abnormal effect. Death and observed clinical signs were recorded on the basis of the number of animals within each group. Individual animals with a tumor volume exceeding 3,000 mm^3 or animals of a group with a mean tumor volume exceeding 2,000 mm^3 were euthanized. In addition, animals showing signs of severe distress and/or pain, dropping body weight more than 20% from that at the start of treatment, or losing the capability of accessing adequate food or water were humanely sacrificed.
Each mouse was inoculated subcutaneously at the right flank with the LNCaP cells (1×10^7) in 0.1 ml of PBS for tumor development. When a mean tumor volume reached around 150 mm^3, the tumor-bearing mice were divided into homogeneous blocks based on their tumor volumes followed by a randomization of mice in each block into treatment groups (thus minimizing variations in tumor response to treatments due to the differential in initial mean tumor volumes). Each treatment group was consisted of 8 tumor-bearing mice. Vehicle (DMSO) or ITE in the vehicle at specified doses were administered to the mice by either i.p. (intraperitoneal) or p.o. (oral) injection once or twice daily for 28 continuous days as indicated.
Tumor volume was measured twice weekly in two dimensions using a caliper and the volume was calculated with a formula of: V=0.5 a×b^2, where a and b are the long and short diameter (in mm) of a tumor, respectively. The tumor volume was then used for calculations of both TGI (Tumor Growth Inhibition) and TGD (Tumor Growth Delay). The TGI was determined by: TGI=ΔT/ΔC×100%, where ΔT was a difference between the mean tumor volume at a specified day of observation and that at the day treatment starts (day 1) for a drug treated group whereas ΔC was the same difference measured for the control group. The TGD was calculated as: TGD=T−C, where T was the time (in days) required for tumors in a drug treated group to reach a predetermined mean tumor volume and C the time (in days) in the control group to reach the same volume. A tumor weight was derived by equating 1,000 mm^3 in volume to 1,000 mg in weight. A net body weight was then derived by subtracting a tumor weight from a corresponding gross body weight with the tumor.
Summary statistics, including mean and the standard error of the mean (SEM), are provided for the tumor volume of each group at each time point. Statistical analysis of difference in tumor volume among groups was conducted on a data set either at the best therapeutic time point or at the final dosing day as indicated. The tumor volume data were log-transformed and evaluated using a one-way ANOVA followed by Tukey's test when significance was observed. All data were analyzed using SPSS 16.0 and p<0.05 was considered to be statistically significant.
The culture and inoculation of human prostate cancer cell line LNCaP were as described in Example 1. The manipulation for human liver cancer cell line HepG2 (ATCC) was similar as that for LNCaP except that DMEM (instead of RPMI-1640) medium was used, the L-glutamine was not used, and 2×10^6 cells were used for inoculation into female nude mice. The handling of human ovarian cancer cell line OVCAR-3 (ATCC) was the same as that of LNCaP except that the DMEM medium was used and 5×10^6 cells were used for inoculation into female nude mice. […]

[2] = test system: human breast cancer cell line MCF-7 xenografts; assay: MCF-7 xenograft growth inhibition in nude mice; assay type: in vivo; details: 20 mg/kg i.p. once daily
Protocol: as §1, with “In addition, animals showing signs of severe distress and/or pain, dropping body weight more than 20% from that at the start of treatment, or losing the capability of accessing adequate food or water were humanely sacrificed.” left out
Tumor volume was measured twice weekly in two dimensions using a caliper and the volume was calculated with a formula of: V=0.5 a×b^2, where a and b are the long and short diameter (in mm) of a tumor, respectively. […] The TGD was calculated as: TGD=T−C, where T was the time (in days) required for tumors in a drug treated group to reach a predetermined mean tumor volume and C the time (in days) in the control group to reach the same volume. […]

COC(=O)c1csc(C(=O)c2c[nH]c3ccccc23)n1 [ITE, 2-(1′H-indole-3′-carbonyl)-thiazole-4-carboxylic acid methyl ester]
net body weight loss [1]: no obvious net body weight loss | TGD (Tumor Growth Delay) ([1]; at a tumor volume of 800 mm^3): 29 days | TGI (Tumor Growth Inhibition) ([1]; day 22, TGI=ΔT/ΔC×100%): 25% | TGD (Tumor Growth Delay) ([2]; at a tumor volume of 500 mm^3): 3 days | TGI (Tumor Growth Inhibition) ([2]; day 19, TGI=ΔT/ΔC×100%): 71%

From patent US10632106B2, “Methods of cancer treatment with 2-(1′H-Indole-3′-carbonyl)-thiazole-4-carboxylic acid methyl ester” (Ariagen, Inc., priority 2009, dated 2020)
